Source: US12679878B2, “CRF2 receptor agonists and their use in therapy” (SANOFI, priority 2020, dated 2026)
Starred links: 1 amine or outer side, 2 acyl side, 3 side chain; linkers in the order of their positions; H or OH if unused. Non-standard residues stand in square brackets, D forms with d. Residues, ends and D or L forms follow the SMILES beside them. Groups on a side chain read outwards from the residue. *: point of attachment. C16 diacid = O=C(O)CCCCCCCCCCCCCCC(=O)*; γGlu = O=C(O)[C@H](CCC(=O)[*:2])N[*:1]; Palmitoyl = CCCCCCCCCCCCCCCC(=O)*; Aib = CC(C)(N)C(=O)O

Tests used:
[1] = molecular target: T1, human CRF2α receptor (Homo sapiens, UniProt Q13324); experiment: cAMP agonism at human CRF2α receptor in TeloHEAC cells, FA modified peptides (Example 19.9); type: cell-based; conditions: 0% HSA, relative to urocortin 2
T1 construct: expressed in transfected cells; host or cells: TeloHEAC
T1 sequence (Q13324 1-411): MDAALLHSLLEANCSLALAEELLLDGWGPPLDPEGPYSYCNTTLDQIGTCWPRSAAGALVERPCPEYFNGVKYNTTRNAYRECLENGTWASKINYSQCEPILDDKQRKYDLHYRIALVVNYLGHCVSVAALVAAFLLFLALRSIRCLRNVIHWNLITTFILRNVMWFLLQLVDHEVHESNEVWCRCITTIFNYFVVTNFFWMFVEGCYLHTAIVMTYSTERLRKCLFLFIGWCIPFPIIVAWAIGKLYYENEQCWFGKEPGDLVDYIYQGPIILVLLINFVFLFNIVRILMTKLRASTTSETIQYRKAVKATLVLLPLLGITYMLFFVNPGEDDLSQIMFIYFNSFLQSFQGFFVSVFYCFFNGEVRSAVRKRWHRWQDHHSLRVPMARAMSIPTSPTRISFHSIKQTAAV
How it was run: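 Efficacy and EC50 are referenced to 100 nM urocortin 2 as 100%, with cAMP measured as the 665/620 nm HTRF ratio after 1 h at room temperature. Compounds (0.5 mM DMSO stock, 16 twofold dilutions) acted 30 min at 37 °C on CRF2α-expressing TeloHEAC cells, buffer containing IBMX and 0% or 0.2% HSA.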

[2] = molecular target: T2, CRF1R receptor (Homo sapiens, UniProt P34998); experiment: cAMP activity at anti-target CRF1R, CHO-K1 cell line clone 2 (Example 19.10); type: cell-based; conditions: for CRF1/CRF2 ratio: ratio of CRF1 EC50 to CRF2 EC50
T2 construct: host or cells: CHO-K1 clone 2
T2 sequence (P34998 24-415): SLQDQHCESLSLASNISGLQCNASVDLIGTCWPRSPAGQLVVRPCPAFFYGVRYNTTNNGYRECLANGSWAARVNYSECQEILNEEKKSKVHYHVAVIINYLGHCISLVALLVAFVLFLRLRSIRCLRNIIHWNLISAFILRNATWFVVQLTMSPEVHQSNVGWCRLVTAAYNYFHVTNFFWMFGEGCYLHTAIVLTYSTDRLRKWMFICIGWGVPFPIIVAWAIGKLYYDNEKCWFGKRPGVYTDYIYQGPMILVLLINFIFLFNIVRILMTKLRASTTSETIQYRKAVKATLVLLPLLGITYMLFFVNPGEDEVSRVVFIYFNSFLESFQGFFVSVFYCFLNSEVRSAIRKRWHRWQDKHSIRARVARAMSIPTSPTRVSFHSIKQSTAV
How it was run: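 The cAMP read-out used the same protocol as the previous assay, except that Sauvagine at 100 nM set the 100% activation control. Cells were CHO-K1 clone 2 overexpressing CRF1R, cultured in F12 medium with 10% FBS and G418 and stored frozen until use.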

Row | SMILES | EC50 [1] [nM] | CRF1/CRF2 ratio [2] | EC50 ([2]; 0% HSA, CRF1R CHO-K1 clone 2, read-out: EC50 [nM] 0% HSA) [nM] | Emax ([2]; 100% = Sauvagine at 100 nM, CRF1R CHO-K1 clone 2) [%]
1 | CCCCCCCCCCCCCCCC(=O)N[C@@H](CCC(=O)NCCCC[C@H](NC(=O)[C@H](CC(C)C)NC(=O)[C@H](CCCCN)NC(=O)[C@@H](NC(=O)[C@@H]1CCCN1C(=O)[C@H](NC(=O)[C@H](CC(=O)O)NC(=O)[C@H](CC(C)C)NC(=O)[C@H](CO)NC(=O)[C@H](CC(C)C)NC(=O)[C@@H](NC(=O)[C@@H](N)[C@@H](C)CC)C(C)C)C(C)C)[C@@H](C)CC)C(=O)N[C@@H](CCC(N)=O)C(=O)N[C@H](C(=O)N[C@@H](CC(C)C)C(=O)N[C@@H](CC(C)C)C(=O)N[C@@H](CCCCN)C(=O)N[C@@H](CCC(N)=O)C(=O)N[C@@H](CCC(=O)O)C(=O)N[C@@H](CCCNC(=N)N)C(=O)N[C@@H](CCC(N)=O)C(=O)N[C@@H](CCCCN)C(=O)N[C@@H](CCCCN)C(=O)N[C@@H](CCC(N)=O)C(=O)N[C@@H](CCCNC(=N)N)C(=O)N[C@@H](CCC(N)=O)C(=O)N[C@@H](CCC(N)=O)C(=O)N[C@@H](C)C(=O)N[C@@H](CCC(=O)O)C(=O)N[C@@H](CCCCN)C(=O)N[C@@H](CC(N)=O)C(=O)N[C@@H](CCCCN)C(=O)N[C@@H](CCC(N)=O)C(=O)N[C@H](C(=O)N[C@@H](CC(C)C)C(=O)N[C@@H](C)C(=O)N[C@@H](CCC(N)=O)C(=O)N[C@H](C(N)=O)C(C)C)[C@@H](C)CC)[C@@H](C)CC)C(=O)O [compound 214] (H-IVLSLD[dV]PIKLK([γGlu-Palmitoyl])QILLKQERQKKQRQQAEKNKQILAQV-NH2; N-terminus assumed) | 4.15 | 1 |  | 
2 | CCCCCCCCCCCCCCCC(=O)N[C@@H](CCC(=O)NCCCC[C@H](NC(=O)[C@H](CC(C)C)NC(=O)CNC(=O)[C@@H](NC(=O)[C@@H]1CCCN1C(=O)[C@H](NC(=O)[C@H](CC(=O)O)NC(=O)[C@H](CC(C)C)NC(=O)[C@H](CO)NC(=O)[C@H](CC(C)C)NC(=O)[C@@H](NC(=O)[C@@H](N)[C@@H](C)CC)C(C)C)C(C)C)[C@@H](C)CC)C(=O)N[C@@H](CCC(N)=O)C(=O)N[C@H](C(=O)N[C@@H](CC(C)C)C(=O)N[C@@H](CC(C)C)C(=O)N[C@@H](CCCCN)C(=O)N[C@@H](CCC(N)=O)C(=O)N[C@@H](CCC(=O)O)C(=O)N[C@@H](CCCNC(=N)N)C(=O)N[C@@H](CCC(N)=O)C(=O)N[C@@H](CCCCN)C(=O)N[C@@H](CCCCN)C(=O)NC(C)(C)C(=O)N[C@@H](CCCNC(=N)N)C(=O)N[C@@H](CCC(=O)O)C(=O)N[C@@H](CCC(N)=O)C(=O)N[C@@H](C)C(=O)N[C@@H](CCC(=O)O)C(=O)N[C@@H](CCCCN)C(=O)N[C@@H](CC(N)=O)C(=O)N[C@@H](CCCCN)C(=O)N[C@@H](CCCNC(=N)N)C(=O)N[C@H](C(=O)N[C@@H](CC(C)C)C(=O)N[C@@H](CCC(=O)O)C(=O)N[C@@H](CCCNC(=N)N)C(=O)N[C@H](C(N)=O)C(C)C)[C@@H](C)CC)[C@@H](C)CC)C(=O)O [compound 218] (H-IVLSLD[dV]PIGLK([γGlu-Palmitoyl])QILLKQERQKK[Aib]REQAEKNKRILERV-NH2) | 1.58 | 4 |  | 
3 | CCCCCCCCCCCCCCCC(=O)N[C@@H](CCC(=O)NCCCC[C@H](NC(=O)[C@H](CC(C)C)NC(=O)[C@H](CCCCN)NC(=O)[C@@H](NC(=O)[C@@H]1CCCN1C(=O)[C@H](NC(=O)[C@H](CC(=O)O)NC(=O)[C@H](CC(C)C)NC(=O)[C@H](CO)NC(=O)[C@H](CC(C)C)NC(=O)[C@@H](NC(=O)[C@@H](N)[C@@H](C)CC)C(C)C)C(C)C)[C@@H](C)CC)C(=O)N[C@@H](CCC(N)=O)C(=O)N[C@H](C(=O)N[C@@H](CC(C)C)C(=O)N[C@@H](CC(C)C)C(=O)N[C@@H](CCCCN)C(=O)N[C@@H](CCC(N)=O)C(=O)N[C@@H](C)C(=O)N[C@@H](CCCNC(=N)N)C(=O)N[C@@H](CCC(N)=O)C(=O)N[C@@H](CCCCN)C(=O)NC(C)(C)C(=O)N[C@@H](CCC(N)=O)C(=O)N[C@@H](CCCNC(=N)N)C(=O)N[C@@H](C)C(=O)N[C@@H](CCC(N)=O)C(=O)N[C@@H](C)C(=O)N[C@@H](CCC(=O)O)C(=O)N[C@@H](CCCCN)C(=O)N[C@@H](CC(N)=O)C(=O)N[C@@H](CCCCN)C(=O)N[C@@H](CCCNC(=N)N)C(=O)N[C@H](C(=O)N[C@@H](CC(C)C)C(=O)N[C@@H](CCC(=O)O)C(=O)N[C@@H](CCCNC(=N)N)C(=O)N[C@H](C(N)=O)C(C)C)[C@@H](C)CC)[C@@H](C)CC)C(=O)O [compound 219] (H-IVLSLD[dV]PIKLK([γGlu-Palmitoyl])QILLKQARQK[Aib]QRAQAEKNKRILERV-NH2) | 5.98 | 2 |  | 
4 | CCCCCCCCCCCCCCCC(=O)N[C@@H](CCC(=O)NCCCC[C@H](NC(=O)[C@H](CC(C)C)NC(=O)CNC(=O)[C@@H](NC(=O)[C@@H]1CCCN1C(=O)[C@H](NC(=O)[C@H](CC(=O)O)NC(=O)[C@H](CC(C)C)NC(=O)[C@H](CO)NC(=O)[C@H](CC(C)C)NC(=O)[C@@H](NC(=O)[C@@H](N)[C@@H](C)CC)C(C)C)C(C)C)[C@@H](C)CC)C(=O)N[C@@H](CCC(N)=O)C(=O)N[C@H](C(=O)N[C@@H](CC(C)C)C(=O)N[C@@H](CC(C)C)C(=O)N[C@@H](CCCCN)C(=O)N[C@@H](CCC(N)=O)C(=O)N[C@@H](CCC(=O)O)C(=O)N[C@@H](CCCNC(=N)N)C(=O)N[C@@H](CCC(N)=O)C(=O)N[C@@H](CCCCN)C(=O)N[C@@H](CCCCN)C(=O)NC(C)(C)C(=O)N[C@@H](CCCNC(=N)N)C(=O)N[C@@H](CCC(N)=O)C(=O)N[C@@H](CCC(N)=O)C(=O)N[C@@H](C)C(=O)N[C@@H](CCC(=O)O)C(=O)N[C@H](C(=O)N[C@@H](CC(N)=O)C(=O)N[C@@H](CCCCN)C(=O)N[C@@H](CCCNC(=N)N)C(=O)N[C@H](C(=O)N[C@@H](CC(C)C)C(=O)N[C@@H](CCC(=O)O)C(=O)N[C@@H](CCCNC(=N)N)C(=O)N[C@H](C(N)=O)C(C)C)[C@@H](C)CC)[C@@H](C)O)[C@@H](C)CC)C(=O)O [compound 220] (H-IVLSLD[dV]PIGLK([γGlu-Palmitoyl])QILLKQERQKK[Aib]RQQAETNKRILERV-NH2; N-terminus assumed) | 1.48 | 6 |  | 
5 | CC[C@H](C)[C@H](N)C(=O)N[C@H](C(=O)N[C@@H](CC(C)C)C(=O)N[C@@H](CO)C(=O)N[C@@H](CC(C)C)C(=O)N[C@@H](CC(=O)O)C(=O)N[C@@H](C(=O)N1CCC[C@H]1C(=O)N[C@H](C(=O)N[C@@H](CCCCN)C(=O)N[C@@H](CC(C)C)C(=O)N[C@@H](CCCCNC(=O)CC[C@H](NC(=O)CCCCCCCCCCCCCCC(=O)O)C(=O)O)C(=O)N[C@@H](CCC(N)=O)C(=O)N[C@@H](CCCCN)C(=O)N[C@@H](CC(C)C)C(=O)N[C@@H](CC(C)C)C(=O)N[C@@H](CCCCN)C(=O)N[C@@H](CCC(N)=O)C(=O)N[C@@H](CCC(=O)O)C(=O)N[C@@H](CCCNC(=N)N)C(=O)N[C@@H](CCC(N)=O)C(=O)N[C@@H](CCCNC(=N)N)C(=O)N[C@@H](CCCCN)C(=O)N[C@@H](CCC(=O)O)C(=O)N[C@@H](CCCNC(=N)N)C(=O)N[C@@H](CCC(=O)O)C(=O)N[C@@H](CCC(N)=O)C(=O)N[C@@H](C)C(=O)N[C@@H](CCC(=O)O)C(=O)N[C@@H](CCCCN)C(=O)N[C@@H](CC(N)=O)C(=O)N[C@@H](C)C(=O)N[C@@H](CCCNC(=N)N)C(=O)N[C@H](C(=O)N[C@@H](CC(C)C)C(=O)N[C@@H](C)C(=O)N[C@@H](CCCNC(=N)N)C(=O)N[C@H](C(N)=O)C(C)C)[C@@H](C)CC)[C@@H](C)O)C(C)C)C(C)C [compound 221] (H-IVLSLD[dV]PTKLK([γGlu-C16 diacid])QKLLKQERQRKEREQAEKNARILARV-NH2; N-terminus assumed) | 2.71 |  | > 100 | 3.2
